Measured values from patent US20130217713A1, “PREDICTIVE MARKER FOR EGFR INHIBITOR TREATMENT” (Hoffmann-La Roche Inc., priority 2007, published 2013).
Read-outs that look alike come from different tables or passages of the source.

Experiments:
[1] = patients with cancer, 150 mg/day; compared with targeted average plasma concentration; cited from earlier work
NSCLC [2] = settings: single agent, NSCLC patients after failure of standard therapy for advanced disease; cited from earlier work
advanced NSCLC = settings: 75 patients with qRT-PCR results
NSCLC [3] = settings: cited from earlier work
NSCLC [4] = settings: second line therapy of NSCLC; cited from earlier work

For `C#Cc1cccc(Nc2ncnc3cc(OCCOC)c(OCCOC)cc23)c1` [Tarceva, erlotinib], the “drug levels in plasma” value [1] is given as over 500 ng/mL, the survival (NSCLC [2]) is given as “significantly prolongs and improves the survival” and the PD (advanced NSCLC) is given as 39 (52%) n (%). The “partial response (PR)” value (advanced NSCLC) was 4 (5%) n (%).
In the case of `CC(=O)O[C@@]12CO[C@@H]1C[C@H](O)[C@@]1(C)C(=O)[C@H](O)C3=C(C)[C@@H](OC(=O)[C@H](O)[C@@H](NC(=O)OC(C)(C)C)c4ccccc4)C[C@@](O)([C@@H](OC(=O)c4ccccc4)[C@H]21)C3(C)C` [docetaxel], the “survival, third-line treatment or beyond” value (NSCLC [3]; docetaxel as third-line treatment or beyond) is given as “no prolongation of survival” and the survival (NSCLC [3]; second line after cisplatin-based first-line regimens failed, ECOG 0, 1 or 2) is given as “improved survival”.
In the case of `Nc1nc2[nH]cc(CCc3ccc(C(=O)N[C@@H](CCC(=O)O)C(=O)O)cc3)c2c(=O)[nH]1` [pemetrexed], the “efficacy compared with docetaxel” value (NSCLC [4]) is listed as “clinically equivalent efficacy” and the “side effects compared with docetaxel” value (NSCLC [4]) is listed as “significantly fewer side effects”.
